Test results: patent publication US6203813A, “Pharmaceutical delivery device and method of preparation therefor” (priority 1998, dated 2001)
“Also recorded” adds a separate entry of the source.

What was measured:
rats [1] = details: 50 mg pellets containing 10 mg naloxone or naltrexone as base; cited from earlier work
[2] = cited from earlier work
opiate addicts = test: Relapse studies after opiate reversal under general anesthesia (telephone follow-up); assay type: in vivo, human
rats [3] = details: chronic naltrexone exposure; cited from earlier work
patients = details: cited from earlier work
male rats = details: pentobarbital injection; naltrexone by injection vs pellet; cited from earlier work
[4] = Patients' blood levels of naltrexone and 6-beta-naltrexone after subcutaneous pellet implant; assay type: in vivo, human

Structure (SMILES): O=C1CC[C@@]2(O)[C@H]3Cc4ccc(O)c5c4[C@@]2(CCN3CC2CC2)[C@H]1O5 [naltrexone, N-cyclopropylmethylnoroxy morphone]
- analgesia on repeated painful stimulation (rats [1]): repeated painful stimulation results in analgesia in rats treated with an opiate antagonist
- level in bloodstream after leveling off, oral ([2]; 1000 mg naltrexone orally, after 48 hours / two days): 0 mg/mL
- duration of the 100 ng/ml level, oral ([2]; 1000 mg naltrexone orally): 48 h
- level in patient's bloodstream, oral ([2]; 1000 mg naltrexone orally, for 48 hours): 100 ng/mL
- undesirable side effects of conventional oral delivery ([2]; at approximately 100 ng/l in the blood stream): undesirable side effects such as an unpleasant feeling
- patients using opiates, assuming all not contacted were using (opiate addicts; one month after opiate reversal, DNM versus ONM, x2=0.76 (not significant)): 54%
- patients using opiates, excluding those who could not be contacted (opiate addicts; one month follow-up after ORGA, DNM 1000 mg per month pellet versus ONM 50 mg per day oral, x2=14.06 (very significant)): 44%
- behavioral sensitivity / morphine-induced hyperactivity after chronic naltrexone (rats [3]): produces behavioral supersensitivity to morphine-induced reinforcement and hyperactivity; also recorded: potentiated morphine-induced hyperactivity in rats
- addiction liability (patients; human, in vivo): neither addicting nor habit-forming
- euphoric effects / effects on stopping the drug (patients; human, in vivo): provides no euphoric effects and there are no observable pharmacological consequences when a patient stops taking the drug
- side-effects (patients; use in humans): free of severe side-effects
- pentobarbital sleeping time (male rats): increasingly antagonized after naltrexone administration by injection
- duration of therapeutically effective naltrexone level in bloodstream ([4]; 1000 mg dose, inventive implant, ~2-8 ng/ml): approximately eighty
- Ntx level ([4]; 78 days since implant, patients' blood, pellet of Examples 1-4, listed as Ntx, 112320 min): 6 ng/mL
- concentration at 1920 h ([4]; human, blood, sc, 1000 mg, inventive implant, leveling off, for approximately eighty days, read-out: level of naltrexone in patient's bloodstream): 2 to 8 ng/mL
- concentration at 192 h ([4]; human, blood, sc, 8 days since implant, patients' blood, pellet of Examples 1-4, read-out: Ntx level): 7 ng/mL
- concentration at 336 h ([4]; human, blood, sc, 14 days since implant, patients' blood, pellet of Examples 1-4, read-out: Ntx level): 11 ng/mL
- concentration at 528 h ([4]; human, blood, sc, 22 days since implant, patients' blood, pellet of Examples 1-4, read-out: Ntx level): 7 ng/mL
- concentration at 672 h ([4]; human, blood, sc, 28 days since implant, patients' blood, pellet of Examples 1-4, read-out: Ntx level): 2 ng/mL
- concentration at 696 h ([4]; human, blood, sc, 29 days since implant, patients' blood, pellet of Examples 1-4, read-out: Ntx level): 2 ng/mL
- concentration at 768 h ([4]; human, blood, sc, 32 days since implant, patients' blood, pellet of Examples 1-4, read-out: Ntx level): 7 ng/mL
- concentration at 792 h ([4]; human, blood, sc, 33 days since implant, patients' blood, pellet of Examples 1-4, read-out: Ntx level): < 2 ng/mL
- concentration at 816 h ([4]; human, blood, sc, 34 days since implant, patients' blood, pellet of Examples 1-4, read-out: Ntx level): 4 ng/mL
- concentration at 840 h ([4]; human, blood, sc, 35 days since implant, patients' blood, pellet of Examples 1-4, read-out: Ntx level): 4 ng/mL
- concentration at 888 h ([4]; human, blood, sc, 37 days since implant, patients' blood, pellet of Examples 1-4, read-out: Ntx level): < 3 ng/mL
- concentration at 912 h ([4]; human, blood, sc, 38 days since implant, patients' blood, pellet of Examples 1-4, read-out: Ntx level): < 2 ng/mL
- concentration at 936 h ([4]; human, blood, sc, 39 days since implant, patients' blood, pellet of Examples 1-4, read-out: Ntx level): 5 ng/mL
- concentration at 1008 h ([4]; human, blood, sc, 42 days since implant, patients' blood, pellet of Examples 1-4, read-out: Ntx level): 4 ng/mL
- concentration at 1176 h ([4]; human, blood, sc, 49 days since implant, patients' blood, pellet of Examples 1-4, read-out: Ntx level): 4 ng/mL
- concentration at 1224 h ([4]; human, blood, sc, 51 days since implant, patients' blood, pellet of Examples 1-4, read-out: Ntx level): 8 ng/mL
- concentration at 1320 h ([4]; human, blood, sc, 55 days since implant, patients' blood, pellet of Examples 1-4, read-out: Ntx level): 36 ng/mL
- concentration at 1440 h ([4]; human, blood, sc, 60 days since implant, patients' blood, pellet of Examples 1-4, read-out: Ntx level): 10 ng/mL
- concentration at 1488 h ([4]; human, blood, sc, 62 days since implant, patients' blood, pellet of Examples 1-4, read-out: Ntx level): < 4 ng/mL
- concentration at 1560 h ([4]; human, blood, sc, 65 days since implant, patients' blood, pellet of Examples 1-4, read-out: Ntx level): < 2 ng/mL
- concentration at 1680 h ([4]; human, blood, sc, 70 days since implant, patients' blood, pellet of Examples 1-4, read-out: Ntx level): 3 ng/mL
- concentration at 1848 h ([4]; human, blood, sc, 77 days since implant, patients' blood, pellet of Examples 1-4, read-out: Ntx level): 2 ng/mL
- concentration at 1872 h ([4]; human, blood, sc, 78 days since implant, patients' blood, pellet of Examples 1-4, read-out: Ntx level): 4 ng/mL

Structure (SMILES): C=CCN1CC[C@]23c4c5ccc(O)c4O[C@H]2C(=O)CC[C@@]3(O)[C@H]1C5 [naloxone, N-allylnoroxymorphone]
- analgesia on repeated painful stimulation (rats [1]): repeated painful stimulation results in analgesia in rats treated with an opiate antagonist
